# Tests used:
# HeLa = test: Cytotoxicity against human HeLa cells after 24 hrs by MTT colorimetric assay; format: functional, cell-based
# MDA-MB-231 = test: Cytotoxicity against human MDA-MB-231 cells after 24 hrs by MTT colorimetric assay; format: functional, cell-based; conditions: MDA-MB-231, 24 h
# [1] = Cytotoxicity against human MIAPaCa2 cells after 24 hrs by MTT colorimetric assay; format: functional, cell-based; conditions: MIA PaCa-2, 24 h
# NCI-H1975 = test: Cytotoxicity against human NCI-H1975 cells after 24 hrs by MTT colorimetric assay; format: functional, cell-based; conditions: NCI-H1975, 24 h
# HUVEC = test: Cytotoxicity against HUVEC cells after 48 hrs by SRB staining assay; format: cell-based; conditions: human
# NHDF = test: Cytotoxicity against NHDF cells after 48 hrs by SRB staining assay; format: cell-based; conditions: human
# [2] = molecular target: Sigma non-opioid intracellular receptor 1 (Homo sapiens, UniProt Q99720); test: Displacement of [3H]-(+)-pentazocine from sigma-1 receptor in human Jurkat cell membrane by liquid scintillation spectrometry; format: cell membranes
# [3] = Displacement of [3H]-DTG from sigma-2 receptor in rat cerebral cortex membranes in presence of (+)-pentazocine by liquid scintillation spectrometry; format: cell membranes, Membrane
# Jurkat = test: Selectivity ratio of IC50 for sigma-2 receptor in rat cerebral cortex membranes to IC50 for sigma-1 receptor in human Jurkat cell membrane; format: cell-based
# [4] = Displacement of [3H]BTX-B from neuronal Na+ channel in male Sprague-Dawley rat brain synaptosomal membrane vesicles by liquid scintillation spectrometry; format: tissue-based
# Chain of Sigma non-opioid intracellular receptor 1 (Q99720 whole entry): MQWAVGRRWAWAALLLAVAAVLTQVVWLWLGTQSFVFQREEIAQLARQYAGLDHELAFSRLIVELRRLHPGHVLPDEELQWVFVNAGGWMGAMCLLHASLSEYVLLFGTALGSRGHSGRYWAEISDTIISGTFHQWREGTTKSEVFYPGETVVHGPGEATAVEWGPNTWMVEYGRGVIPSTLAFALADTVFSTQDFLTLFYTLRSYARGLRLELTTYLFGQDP
SMILES,IC50 (HeLa) [µM],IC50 (MDA-MB-231) [µM],IC50 [1] [µM],IC50 (NCI-H1975) [µM],LC50 (HUVEC) [µM],LC50 (NHDF) [µM],IC50 [2] [µM],IC50 [3] [µM],Ratio IC50 (Jurkat),IC50 [4] [µM]
O=C(CN1CCCCC1)N1CCN(C2(c3ccc(F)cc3)C3CC4CC(C3)CC2C4)CC1 (centres undefined),8.4,6.8,14.6,12.7,88.78,85.26,–,–,–,–
O=C(CN1CCCCC1)N1CCN(C2(c3ccccc3)C3CC4CC(C3)CC2C4)CC1 (centres undefined),12.4,11.4,12.2,16.3,60.35,58.43,0.135,3.34,24.7,2.44
CCOC(=O)N1CCN(C2(c3ccccc3)C3CC4CC(C3)CC2C4)CC1 (centres undefined),23,28,25.4,24.2,> 100,100,–,–,–,–
Nc1ccn([C@@H]2O[C@H](CO)[C@@H](O)C2(F)F)c(=O)n1 [GEMCITABINE],3.3,0.19,0.6,–,–,–,–,–,–,–
CN1CCN(C2(c3ccc(F)cc3)C3CC4CC(C3)CC2C4)CC1 (centres undefined),15.3,15.7,16.6,14.6,–,–,–,–,–,–
O=C(O)/C=C\C(=O)O.c1ccc(C2(N3CCNCC3)C3CC4CC(C3)CC2C4)cc1 (centres undefined),9.2,8.4,12.3,17.3,95.45,90,–,–,–,–
CCOC(=O)N1CCN(C2(c3ccc(F)cc3)C3CC4CC(C3)CC2C4)CC1 (centres undefined),14.5,21,18.5,17.5,–,–,–,–,–,–
O=C(c1ccc(Cl)s1)N1CCN(C2(c3ccccc3)C3CC4CC(C3)CC2C4)CC1 (centres undefined),12.8,11.4,12.4,12.7,–,–,–,–,–,–
O=C(N1CCN(C2(c3ccccc3)C3CC4CC(C3)CC2C4)CC1)n1ccnc1 (centres undefined),12.2,13.5,13.5,10.5,> 100,98.16,–,–,–,–
CN1CCN(C2(c3ccccc3)C3CC4CC(C3)CC2C4)CC1 (centres undefined),17.4,17.4,19.5,18.7,–,–,–,–,–,–
Fc1ccc(C2(N3CCNCC3)C3CC4CC(C3)CC2C4)cc1.O=C(O)/C=C\C(=O)O (centres undefined),12.9,14.6,11.7,12.8,> 100,93.66,–,–,–,–

# Reference: ChEMBL document CHEMBL3414554, “Novel 1-(2-aryl-2-adamantyl)piperazine derivatives with antiproliferative activity” (Eur J Med Chem, 2015)
